# Reference: ChEMBL document CHEMBL1201862, “PubChem BioAssay data set” (2004)
# Active and inactive are the calls of the source.
# Key:
# [1] = biological target: T1, Long-chain-fatty-acid--AMP ligase FadD28 (Mycobacterium tuberculosis, UniProt P9WQ59); test: Fluorescence polarization aasay to screen for inhibitors that compete for the binding of FadD28 to a bisubstrate Measured in Biochemical System Using Plate Reader - 2147-01_Inhibitor_Dose_CherryPick_Activity.; assay type: functional, Mycobacterium tuberculosis H37Rv
# T1 sequence (P9WQ59 whole entry): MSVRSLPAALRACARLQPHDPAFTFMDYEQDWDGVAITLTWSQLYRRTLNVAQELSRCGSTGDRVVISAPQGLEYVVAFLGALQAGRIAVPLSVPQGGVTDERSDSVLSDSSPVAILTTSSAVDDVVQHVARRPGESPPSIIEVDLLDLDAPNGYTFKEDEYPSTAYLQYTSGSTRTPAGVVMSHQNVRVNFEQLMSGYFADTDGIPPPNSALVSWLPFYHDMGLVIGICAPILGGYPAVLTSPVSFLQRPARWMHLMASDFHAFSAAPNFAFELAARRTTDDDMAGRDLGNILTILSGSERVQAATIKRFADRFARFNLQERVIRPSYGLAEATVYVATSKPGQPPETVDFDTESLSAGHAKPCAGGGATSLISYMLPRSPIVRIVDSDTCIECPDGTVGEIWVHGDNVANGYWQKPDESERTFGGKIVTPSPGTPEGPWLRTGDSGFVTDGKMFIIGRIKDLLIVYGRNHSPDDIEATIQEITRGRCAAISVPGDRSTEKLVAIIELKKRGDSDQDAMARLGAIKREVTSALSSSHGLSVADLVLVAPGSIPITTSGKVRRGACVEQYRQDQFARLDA
# [2] = inhibitors of HIV Env-driven cell fusion, dose response, cherry-pick (AID 652057); assay type: functional, cell-based
# [3] = ZM109 Env clade C HIV-1 fusion inhibitors, dose response, HeLa effector, CEM target cells, luciferase, cherry-pick (AID 652058); assay type: functional, cell-based
# [4] = off-target signal loss in HeLa-CEM21 co-culture – HeLa F-luc CTL cells, cherry-picked, counter-screen for HIV-1 Env fusion inhibitor project, dose response (AID 652040); assay type: functional, cell-based;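 also: potency for signal decrease marking cytotoxic or nonspecific inhibition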
# [5] = inhibitors of clade B AD8 Env fusion, dose response, cell-based, cherry-pick (AID 652062); assay type: functional;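 also: luciferase signal from cell-cell fusion driven by HIV-1 clade B AD8 Env; potency is for inhibitors of fusion seen as a drop in luminescence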
# [6] = microbe, parasite or virus in culture; assay type: functional; settings: Mycobacterium tuberculosis
# [7] = Luminescence Cell-Based Dose Retest to Confirm Inhibitors of Cancer Stem Cells. [Related pubchem assays (depositor defined):AID2717, AID2721]; assay type: functional; settings: Homo sapiens
# [8] = biological target: T2, Ubiquitin-conjugating enzyme E2 N (Homo sapiens, UniProt P61088); assay type: functional;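 also: Dose-response confirmation in a TR-FRET assay detecting UBC13-driven polyubiquitin chain formation, inhibition measured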
# T2 sequence (P61088 whole entry): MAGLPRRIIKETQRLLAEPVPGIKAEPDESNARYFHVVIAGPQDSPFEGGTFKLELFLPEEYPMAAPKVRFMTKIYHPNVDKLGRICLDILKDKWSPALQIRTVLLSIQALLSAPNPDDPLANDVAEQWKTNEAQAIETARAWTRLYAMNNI
# [9] = biological target: T3, DNA repair protein RAD52 homolog (Homo sapiens, UniProt P43351); assay type: functional, biochemical
# T3 sequence (P43351 whole entry): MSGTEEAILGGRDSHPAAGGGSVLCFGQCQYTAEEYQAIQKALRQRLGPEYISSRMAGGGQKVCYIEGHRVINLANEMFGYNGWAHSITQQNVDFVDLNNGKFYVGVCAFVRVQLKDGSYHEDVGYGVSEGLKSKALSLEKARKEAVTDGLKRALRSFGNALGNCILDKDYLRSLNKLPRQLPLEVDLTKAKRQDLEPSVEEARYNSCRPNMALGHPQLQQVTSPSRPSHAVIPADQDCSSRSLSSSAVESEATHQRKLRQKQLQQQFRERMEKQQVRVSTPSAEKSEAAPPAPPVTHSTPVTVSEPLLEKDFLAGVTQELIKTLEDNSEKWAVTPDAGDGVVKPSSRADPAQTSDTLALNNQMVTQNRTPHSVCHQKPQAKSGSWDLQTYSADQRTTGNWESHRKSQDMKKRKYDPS
# BJ [10] = test: cytotoxicity toward BJ-TERT-LT-ST fibroblasts, dose response, cell-based, RAS-independent, luminescence (AID 1935); assay type: functional; settings: Homo sapiens;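 also: BJ fibroblasts immortalized with TERT plus LT and ST oncogenes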
# BJ [11] = test: cytotoxicity toward BJ-TERT fibroblasts, dose response, cell-based, RAS-independent, luminescence (AID 1933); assay type: functional; settings: Homo sapiens
# [12] = cytotoxicity toward DRD oncogenic fibroblasts, dose response, cell-based, non-viral oncogenic, luminescence (AID 1934); assay type: functional; settings: Homo sapiens
# [13] = growth suppression of beta-catenin-knockout colon cells, dose response, cell-based, HCT116, human colon tumor (AID 1045); assay type: functional;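 also: HCT116 colon tumor cells with beta catenin knocked out; cells exposed to compound for 60 hours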
# BJ [14] = test: cells; assay type: functional, cell-based; settings: Homo sapiens
# [15] = growth suppression of PTEN-null colon cells, dose response, cell-based, HCT116 PTEN knockout (AID 1047); assay type: functional;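 also: HCT116 colon tumor cells with PTEN knocked out; cells exposed to compound for 60 hours before readout; potency for loss of cell viability measured by luminescence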
# [16] = HEp-2 cell cytotoxicity, dose response, cytotoxicity control for RSV inhibitor project, HTS (AID 2410); assay type: functional; settings: human respiratory syncytial virus
# [17] = Shn3 3'UTR reporter inhibitors, dose response, cell-based, Clone20 osteoblasts, firefly luciferase, cherry-picked (AID 624132); assay type: functional;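 also: firefly luciferase luminescence from reporter carrying the Shn3 3'UTR in osteoblasts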
# [18] = control 3'UTR Renilla luciferase suppression, dose response, counter-screen for Shn3 inhibitor project, cell-based, Clone20-Shn3RL, cherry-picked (AID 624133); assay type: functional
# [19] = HepG2 cell cytotoxicity, dose response, cytotoxicity control for Shn3 inhibitor project, CellTiter-Glo, cherry-picked (AID 624134); assay type: functional, cell-based
# Vero = test: cells; assay type: functional; settings: Chlorocebus sabaeus
# [20] = biological target: Dual specificity tyrosine-phosphorylation-regulated kinase 1A (Rattus norvegicus, UniProt Q63470); assay type: biochemical, Homo sapiens
# [21] = cytotoxicity in HEK-293T cells, dose response, cytotoxicity control for TCR NF-kB inhibitor project, luminescence, T-cell screen hits (AID 489026); assay type: functional, cell-based;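 also: cells exposed to compound about 14 hours before the viability readout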
# Cytochrome P450 1A2 = biological target: T4, Cytochrome P450 1A2 (Homo sapiens, UniProt P05177);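 also: PubChem cytochrome P450 panel assay, CYP1A2 panel member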
# T4 sequence (P05177 whole entry): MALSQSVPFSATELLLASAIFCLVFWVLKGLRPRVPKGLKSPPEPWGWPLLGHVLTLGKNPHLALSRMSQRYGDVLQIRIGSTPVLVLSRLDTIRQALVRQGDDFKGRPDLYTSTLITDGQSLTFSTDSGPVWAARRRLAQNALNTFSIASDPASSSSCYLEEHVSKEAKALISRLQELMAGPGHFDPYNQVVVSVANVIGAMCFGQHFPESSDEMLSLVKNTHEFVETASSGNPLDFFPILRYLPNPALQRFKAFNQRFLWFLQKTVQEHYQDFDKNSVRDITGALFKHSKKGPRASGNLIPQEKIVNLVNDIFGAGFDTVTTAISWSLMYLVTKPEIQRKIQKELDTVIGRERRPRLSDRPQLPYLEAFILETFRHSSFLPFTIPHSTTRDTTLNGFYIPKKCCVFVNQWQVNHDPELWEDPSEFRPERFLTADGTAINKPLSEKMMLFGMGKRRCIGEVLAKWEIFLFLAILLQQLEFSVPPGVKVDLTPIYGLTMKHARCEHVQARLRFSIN
# INS1 = test: beta cell apoptosis inhibitors, cytokine rescue, dose response, luminescence, retest (AID 449756); assay type: functional, cell-based; settings: Rattus norvegicus;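 also: cell death triggered by IL-1 beta plus TNF-alpha plus IFN-gamma mixture; protective hits raise ATP signal compared with cytokine alone wells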
# [22] = biological target: T5, Carboxy-terminal domain RNA polymerase II polypeptide A small phosphatase 1 (Homo sapiens, UniProt Q9GZU7); test: inhibitors of CTDSP1, concentration-response testing, biochemical assay, absorbance-based, actives from ultra-high-throughput screening (AID 540297); assay type: functional
# T5 sequence (Q9GZU7 whole entry): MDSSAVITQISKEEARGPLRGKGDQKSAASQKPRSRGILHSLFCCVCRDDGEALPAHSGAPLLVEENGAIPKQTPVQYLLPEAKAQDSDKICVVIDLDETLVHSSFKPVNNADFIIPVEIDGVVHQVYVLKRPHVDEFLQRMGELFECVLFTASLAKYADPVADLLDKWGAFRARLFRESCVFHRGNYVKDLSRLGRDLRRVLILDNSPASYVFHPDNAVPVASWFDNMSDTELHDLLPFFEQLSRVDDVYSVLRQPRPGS
structure (smiles),measurement,setting,value
Cc1cccc(CSCCNC(=O)c2ccc(N(C)S(=O)(=O)c3ccccc3)cc2)c1,AC50,[1],> 100 µM (inactive)
O=C(NCCCc1nc2ccccc2[nH]1)c1ccco1,AC50,[2],48.8 µM (active)
same,AC50,[3],1.61 µM (active)
COc1ccc(C(=O)Cn2c(=O)oc3ccc(C)cc32)cc1,AC50,[1],36.7 µM (active)
C=C1CCN([C@H](C(=O)OCc2cccc(C)c2)C(C)C)S(=O)(=O)c2ccccc21,AC50,[2],1.99 µM (active)
same,AC50,[4],5.21 µM (active)
same,AC50,[3],3.64 µM (active)
same,AC50,[5],4.76 µM (active)
COc1ccc(C2=Nn3c(nnc3-c3ccccc3F)SC2)cc1OC1CCCC1,CC50,[6],9.04 µM (active)
same,AC50,[7],6.06 µM (active)
same,IC50,[8],> 20 µM (inactive)
Cc1cc2nc(NC(=N)N)nc(C)c2cc1C,AC50,[9],3.41 µM (active)
C[C@@]1(CO)[C@H](O)CC[C@@]2(C)[C@H]1CC[C@H]1C[C@@H]3C[C@@]12CC[C@]3(O)CO [APHIDICOLIN],EC50,BJ [10],> 150 µM (not active)
same,EC50,BJ [11],38.6 µM (active)
same,EC50,[12],> 150 µM (inconclusive)
same,EC50,[13],1.73 µM (active)
same,EC50,BJ [14],28.6 µM (active)
same,EC50,[15],0.839 µM (active)
CCOC(=O)c1[nH]c2ccc(F)cc2c1NC(=O)CN1CCN(C/C=C/c2ccccc2)CC1,CC50,[6],22.4 µM (active)
same,CC50,[16],8.01 µM (active)
COc1ccc(NS(=O)(=O)c2cc(NC(=O)COc3ccccc3)ccc2N2CCOCC2)cc1,AC50,[1],> 100 µM (inactive)
CCCCCCNC(=O)O[C@H]1Cn2c(=O)ccc(=O)n2[C@@H]2CN(S(=O)(=O)c3ccc(C)cc3)C[C@]12O,AC50,[17],14.1 µM (active)
same,AC50,[18],31.5 µM (active)
same,AC50,[19],19.1 µM (active)
same,CC50,Vero,24 µM (active)
O=C1/C(=C/c2ccc3c(c2)OCO3)Oc2cc(OCC(=O)N3CC(O)C[C@H]3C(=O)O)ccc21 (some centres undefined),AC50,[20],3.56 µM (active)
CC(C)Cn1c(N)c(C(=O)CSc2ccc3c(c2)OCCO3)c(=O)n(C)c1=O,AC50,[17],0.674 µM (active)
same,AC50,[18],1.57 µM (active)
same,AC50,[19],1.74 µM (active)
same,IC50,[21],> 80 µM (inactive)
same,AC50,Cytochrome P450 1A2,31.6 µM (inconclusive)
same,AC50,INS1,2.98 µM (active)
Cc1cccc(N2CCN(C(=O)c3ccc(S(=O)(=O)N(C)c4ccccc4)cc3)CC2)c1C,IC50,[22],12 µM (active)
same,IC50,[21],> 80 µM (inactive)
